# Target: T1, wild type human POLγ (POLγA:WT) (Homo sapiens, UniProt P54098)
# T1 sequence (P54098 1-1239): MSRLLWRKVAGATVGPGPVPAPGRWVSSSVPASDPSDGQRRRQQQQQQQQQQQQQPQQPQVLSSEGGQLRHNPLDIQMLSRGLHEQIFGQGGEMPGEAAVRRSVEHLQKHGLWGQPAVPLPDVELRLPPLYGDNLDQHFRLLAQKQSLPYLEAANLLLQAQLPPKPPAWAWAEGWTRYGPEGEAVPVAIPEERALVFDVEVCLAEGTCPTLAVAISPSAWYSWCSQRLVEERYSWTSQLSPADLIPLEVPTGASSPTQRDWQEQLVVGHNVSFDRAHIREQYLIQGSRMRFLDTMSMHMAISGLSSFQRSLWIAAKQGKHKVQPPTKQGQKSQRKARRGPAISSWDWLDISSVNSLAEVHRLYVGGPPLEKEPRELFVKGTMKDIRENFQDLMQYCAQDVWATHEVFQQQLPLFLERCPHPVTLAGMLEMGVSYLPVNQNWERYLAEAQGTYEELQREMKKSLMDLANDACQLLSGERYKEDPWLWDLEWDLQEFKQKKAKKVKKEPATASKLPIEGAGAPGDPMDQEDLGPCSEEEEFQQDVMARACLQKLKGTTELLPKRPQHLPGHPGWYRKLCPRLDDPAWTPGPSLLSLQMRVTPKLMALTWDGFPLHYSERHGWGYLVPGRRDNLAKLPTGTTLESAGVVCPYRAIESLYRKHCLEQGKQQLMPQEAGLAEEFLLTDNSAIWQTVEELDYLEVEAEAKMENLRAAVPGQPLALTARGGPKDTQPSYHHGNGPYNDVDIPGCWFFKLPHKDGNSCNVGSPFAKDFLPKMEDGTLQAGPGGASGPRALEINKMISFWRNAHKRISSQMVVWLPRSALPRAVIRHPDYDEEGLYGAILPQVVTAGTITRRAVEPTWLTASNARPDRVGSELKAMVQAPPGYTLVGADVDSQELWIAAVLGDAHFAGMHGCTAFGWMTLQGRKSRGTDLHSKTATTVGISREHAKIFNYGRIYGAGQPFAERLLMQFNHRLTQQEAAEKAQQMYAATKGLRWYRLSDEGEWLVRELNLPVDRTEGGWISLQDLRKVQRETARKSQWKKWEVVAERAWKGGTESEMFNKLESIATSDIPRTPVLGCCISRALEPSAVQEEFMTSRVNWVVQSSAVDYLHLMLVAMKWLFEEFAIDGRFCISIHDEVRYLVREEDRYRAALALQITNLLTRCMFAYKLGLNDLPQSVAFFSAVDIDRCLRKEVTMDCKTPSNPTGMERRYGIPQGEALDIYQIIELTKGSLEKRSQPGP
# T1 sequence (Q9UHN1 1-485 partner): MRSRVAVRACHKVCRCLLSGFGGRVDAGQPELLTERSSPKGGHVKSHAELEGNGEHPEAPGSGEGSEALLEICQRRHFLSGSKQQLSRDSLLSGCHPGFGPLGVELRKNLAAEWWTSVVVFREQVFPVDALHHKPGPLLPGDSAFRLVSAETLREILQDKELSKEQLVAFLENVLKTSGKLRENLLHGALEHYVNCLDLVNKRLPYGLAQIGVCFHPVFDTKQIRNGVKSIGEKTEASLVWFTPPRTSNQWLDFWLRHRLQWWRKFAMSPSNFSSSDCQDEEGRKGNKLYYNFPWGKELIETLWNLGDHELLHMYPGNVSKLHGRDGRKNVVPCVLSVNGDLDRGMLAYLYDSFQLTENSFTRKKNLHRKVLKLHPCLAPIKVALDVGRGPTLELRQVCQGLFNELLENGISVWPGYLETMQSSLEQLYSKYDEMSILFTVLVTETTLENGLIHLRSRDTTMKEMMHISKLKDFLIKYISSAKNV
# Experiment: DNA polymerization assay, wild type POLγ
# Type: biochemical
# Settings: 0.1 μM dNTP, read-out: WT AC50 (μM) at 0.1 μM
row,AC50,SMILES
1,> 100 µM,"Cc1ccc(C)c(S(=O)(=O)Nc2cccc(C(=O)N3CCSCC3C(N)=O)c2)c1 (stereo not shown) [Example 41, 4-(3-((2,5-dimethylphenyl)sulfonamido)benzoyl) thiomorpholine-3-carboxamide]"
2,3 µM,"COCCN(C)C(=O)c1cccc(NS(=O)(=O)c2cc(C)c(Cl)cc2C)c1 [Example 58, 3-((4-chloro-2,5-dimethylphenyl)sulfonamido)-N-(2-methoxyethyl)-N-methylbenzamide]"
3,6 µM,"Cc1cc(S(=O)(=O)Nc2cccc(C(=O)N[C@H](C)CO)c2)c(C)cc1Cl [Example 51, (R)-3-((4-chloro-2,5-dimethylphenyl)sulfonamido)-N-(1-hydroxypropan-2-yl)benzamide]"
4,2 µM,"Cc1cc(S(=O)(=O)Nc2ccc(F)c(C(=O)N3CCC[C@H]3C)c2)c(C)cc1Cl [Example 49, (R)-4-chloro-N-(4-fluoro-3-(2-methylpyrrolidine-1-carbonyl)phenyl)-2,5-dimethylbenzenesulfonamide]"
5,12 µM,"Cc1ccc(C)c(S(=O)(=O)Nc2cccc(C(=O)N3CCCCCC3)c2)c1 [Example 32, N-(3-(azepane-1-carbonyl)phenyl)-2,5-dimethylbenzenesulfonamide]"
6,1 µM,"Cc1cc(S(=O)(=O)Nc2cc(C(=O)N3CCC[C@H]3C)ccc2F)c(C)cc1Cl [Example 50, (R)-4-chloro-N-(2-fluoro-5-(2-methylpyrrolidine-1-carbonyl)phenyl)-2,5-dimethylbenzenesulfonamide]"

# Same assay, conditions: 100 μM dNTP, read-out: WT AC50 (μM) at 100 μM
row,SMILES,AC50
1,"Cc1cc(S(=O)(=O)Nc2cccc(C(=O)N3CCCC34CC4)c2)c(C)cc1Cl [Example 162, N-(3-(4-azaspiro[2.4]heptane-4-carbonyl)phenyl)-4-chloro-2,5-dimethylbenzenesulfonamide]",0.4 µM
2,"Cc1cc(S(=O)(=O)Nc2ccc3ccn(C(C)C)c3c2)c(C)cc1Cl [Example 69, 4-chloro-N-(1-isopropyl-1H-indol-6-yl)-2,5-dimethylbenzenesulfonamide]",1 µM
3,"Cc1cc(S(=O)(=O)Nc2cccc(-c3cc(C4CC4)[nH]n3)c2)c(C)cc1Cl [Example 64, 4-chloro-N-(3-(5-cyclopropyl-1H-pyrazol-3-yl)phenyl)-2,5-dimethylbenzenesulfonamide]",0.7 µM
4,"Cc1cc(-c2cccc(NS(=O)(=O)c3cc(C)c(Cl)cc3C)c2)n[nH]1 [Example 66, 4-chloro-2,5-dimethyl-N-(3-(5-methyl-1H-pyrazol-3-yl)phenyl)benzenesulfonamide]",0.5 µM
5,"Cc1cc(S(=O)(=O)Nc2cccc(C(=O)N3CCC[C@H]3C(C)C)c2)c(C)cc1Cl [Example 67, (S)-4-chloro-N-(3-(2-isopropylpyrrolidine-1-carbonyl)phenyl)-2,5-dimethylbenzenesulfonamide]",> 10 µM
6,"Cc1cc(S(=O)(=O)Nc2cccc(C(=O)N(C)C(C)CO)c2)c(C)cc1Cl (single isomer, unassigned) [Example 15, 3-((4-chloro-2,5-dimethylphenyl)sulfonamido)-N-(1-hydroxypropan-2-yl)-N-methylbenzamide]",> 10 µM
7,"Cc1cc(S(=O)(=O)Nc2cccc(-c3cc[nH]n3)c2)c(C)cc1Cl [Example 68, N-(3-(1H-pyrazol-3-yl)phenyl)-4-chloro-2,5-dimethylbenzenesulfonamide]",0.2 µM
8,"Cc1csc(-c2cccc(NS(=O)(=O)c3cc(C)c(Cl)cc3C)c2)n1 [Example 20, 4-chloro-2,5-dimethyl-N-(3-(4-methylthiazol-2-yl)phenyl)benzenesulfonamide]",0.3 µM
9,"Cc1cc(S(=O)(=O)Nc2csc(C(=O)N3CCCC3)n2)c(C)cc1Cl [Example 166, 4-chloro-2,5-dimethyl-N-(2-(pyrrolidine-1-carbonyl)thiazol-4-yl)benzenesulfonamide]",2 µM
10,"Cc1nc2ccc(NS(=O)(=O)c3cc(C)c(Cl)cc3C)cc2o1 [Example 70, 4-chloro-2,5-dimethyl-N-(2-methylbenzo[d]oxazol-6-yl)benzenesulfonamide]",11 µM
11,Cc1ccc(C)c(S(=O)(=O)Nc2cccc(-c3nccs3)c2)c1 [Example 60],0.6 µM
12,"Cc1cc(S(=O)(=O)Nc2cn(Cc3ccccc3)cn2)c(C)cc1Cl [Example 168, N-(1-benzyl-1H-imidazol-4-yl)-4-chloro-2,5-dimethylbenzenesulfonamide]",> 10 µM
13,"COc1cccc(-c2nc(NS(=O)(=O)c3cc(C)c(Cl)cc3C)cs2)c1 [Example 165, 4-chloro-N-(2-(3-methoxyphenyl)thiazol-4-yl)-2,5-dimethylbenzenesulfonamide]",0.7 µM
14,"Cc1cnc(-c2cccc(NS(=O)(=O)c3cc(C)c(Cl)cc3C)c2)s1 [Example 21, 4-chloro-2,5-dimethyl-N-(3-(5-methylthiazol-2-yl)phenyl)benzenesulfonamide]",1 µM

# The next lines start with the values.
row,AC50,SMILES
1,> 10 µM,"Cc1cc(S(=O)(=O)Nc2cn(C)c(-c3ccccc3)n2)c(C)cc1Cl [Example 170, 4-chloro-2,5-dimethyl-N-(1-methyl-2-phenyl-1H-imidazol-4-yl)benzenesulfonamide]"
2,> 10 µM,"Cc1cc(S(=O)(=O)Nc2nc(-c3ccccc3)n(C)n2)c(C)cc1Cl [Example 180, 4-chloro-2,5-dimethyl-N-(1-methyl-5-phenyl-1H-1,2,4-triazol-3-yl)benzenesulfonamide]"
3,0.1 µM,"Cc1cc(S(=O)(=O)Nc2csc(C(=O)N3CCC[C@H]3C)n2)c(C)cc1Cl [Example 174, (R)-4-chloro-2,5-dimethyl-N-(2-(2-methylpyrrolidine-1-carbonyl)thiazol-4-yl)benzenesulfonamide]"
4,5 µM,"Cc1cc(S(=O)(=O)Nc2cnn(-c3ccccc3)n2)c(C)cc1Cl [Example 171, 4-chloro-2,5-dimethyl-N-(2-phenyl-2H-1,2,3-triazol-4-yl)benzenesulfonamide]"
5,> 100 µM,"Cc1cc(S(=O)(=O)Nc2csc(C(=O)N(CC(N)=O)C3CCCC3)n2)c(C)cc1Cl [Example 177, N-(2-amino-2-oxoethyl)-4-((4-chloro-2,5-dimethylphenyl)sulfonamido)-N-cyclopentylthiazole-2-carboxamide]"
6,> 100 µM,"Cc1cc(S(=O)(=O)Nc2csc(-n3cccn3)n2)c(C)cc1Cl [Example 178, N-(2-(1H-pyrazol-1-yl)thiazol-4-yl)-4-chloro-2,5-dimethylbenzenesulfonamide]"
7,3 µM,"Cc1cc(S(=O)(=O)Nc2csc(C(=O)N3CCC[C@@H]3C)n2)c(C)cc1Cl [Example 175, (S)-4-chloro-2,5-dimethyl-N-(2-(2-methylpyrrolidine-1-carbonyl)thiazol-4-yl)benzenesulfonamide]"
8,> 100 µM,"Cc1cc(S(=O)(=O)Nc2csc(C(=O)N(C)CC(N)=O)n2)c(C)cc1Cl [Example 172, N-(2-amino-2-oxoethyl)-4-((4-chloro-2,5-dimethylphenyl)sulfonamido)-N-methylthiazole-2-carboxamide]"
9,0.2 µM,"Cc1cc(S(=O)(=O)Nc2csc(-c3ccccn3)n2)c(C)cc1Cl [Example 173, 4-chloro-2,5-dimethyl-N-(2-(pyridin-2-yl)thiazol-4-yl)benzenesulfonamide]"
10,> 100 µM,"Cc1cc(S(=O)(=O)Nc2csc(-c3ccncc3)n2)c(C)cc1Cl [Example 176, 4-chloro-2,5-dimethyl-N-(2-(pyridin-4-yl)thiazol-4-yl)benzenesulfonamide]"
11,> 100 µM,"Cc1cc2cc(NS(=O)(=O)c3cc(C)c(Cl)cc3C)ccc2[nH]1 [Example 184, 4-chloro-2,5-dimethyl-N-(2-methyl-1H-indol-5-yl)benzenesulfonamide]"
